Measurements reported in ChEMBL document CHEMBL1201862, “PubChem BioAssay data set” (2004).
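Following 48 hours of exposure in 96-well plates, responses at five concentrations were used to interpolate endpoints linearly. GI50 marks 50% less growth.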 Activity calls are given as the source filed them. No stated cut-off is given here; in the data, active = GI50 up to about 1.1 µM and inactive = higher.

Columns and labels:
Assay in all cases: NCI anticancer screen, dose series, 48 h
HOP-92 = tested on: HOP-92
MCF7 = tested on: MCF7
RXF 393 = tested on: RXF 393
DMS-114 = tested on: DMS-114
HOP-62 = tested on: HOP-62
NCI-H226 = tested on: NCI-H226
HCT-116 = tested on: HCT-116
CCRF-CEM = tested on: CCRF-CEM
HCT-15 = tested on: HCT-15
NCI-H460 = tested on: NCI-H460
SK-OV-3 = tested on: SK-OV-3
HCC 2998 = tested on: HCC 2998
SNB-78 = tested on: SNB-78
SR = tested on: SR
TK-10 = tested on: TK-10
M14 = tested on: M14

Row | Compound | GI50 (HOP-92) | GI50 (MCF7) | GI50 (RXF 393) | GI50 (DMS-114) | GI50 (HOP-62) | GI50 (NCI-H226) | GI50 (HCT-116) | GI50 (CCRF-CEM) | GI50 (HCT-15) [µM] | GI50 (NCI-H460) | GI50 (SK-OV-3) | GI50 (HCC 2998) | GI50 (SNB-78) | GI50 (SR) | GI50 (TK-10) | GI50 (M14)
1 | O=NN(CCCl)C(=O)N[C@H]1CC[C@H](C(=O)O)CC1 | > 100 µM (inactive) | > 100 µM (inactive) | > 100 µM (inactive) | 22.8 µM (inactive) | 95.5 µM (inactive) | > 100 µM (inactive) | > 100 µM (inactive) | 36.3 µM (inactive) | > 100 | 44.6 µM (inactive) | > 100 µM (inactive) | > 100 µM (inactive) | > 100 µM (inactive) |  |  | 
2 | COc1c(Cl)cc(Cl)cc1S(=O)O |  |  | > 100 µM (inactive) | > 100 µM (inactive) | > 100 µM (inactive) |  | > 100 µM (inactive) | > 100 µM (inactive) |  | > 100 µM (inactive) | > 100 µM (inactive) | > 100 µM (inactive) | > 100 µM (inactive) | > 100 µM (inactive) | > 100 µM (inactive) | > 100 µM (inactive)
3 | C=C1CC(OC)(C(O)C(=O)N[C@H]2OCO[C@H]3C2O[C@H](C[C@@H](COC)OC)C(C)(C)C3OC)O[C@H](C)[C@@H]1C (some centres undefined) |  | < 0.00482 µM (active) | < 0.00482 µM (active) | < 0.00482 µM (active) | < 0.00482 µM (active) | < 0.00482 µM (active) | < 0.00482 µM (active) | < 0.00482 µM (active) | < 0.00482 | < 0.00482 µM (active) |  | < 0.00482 µM (active) | < 0.00482 µM (active) |  |  | 
4 | C=C1C(=O)C[C@@]23CCC[C@@]12CC(OCOC)C3 (some centres undefined) | 2.32 µM (inactive) | 1.83 µM (inactive) | 0.637 µM (active) | 1.91 µM (inactive) | 12 µM (inactive) | 2 µM (inactive) | 2.18 µM (inactive) | 1.62 µM (inactive) | 1.36 | 2.74 µM (inactive) | 6.67 µM (inactive) | 6.35 µM (inactive) | 4.8 µM (inactive) |  |  | 
5 | NC(=O)c1ncn2c1NC(=O)CC2 | > 100 µM (inactive) | > 100 µM (inactive) | > 100 µM (inactive) | > 100 µM (inactive) | > 100 µM (inactive) | > 100 µM (inactive) | > 100 µM (inactive) | > 100 µM (inactive) | > 100 | > 100 µM (inactive) | > 100 µM (inactive) | > 100 µM (inactive) | > 45.3 µM (inactive) |  |  | 
6 | NC(=O)c1csc(C2O[C@@H](COP(=O)(O)OP(=O)(O)OC[C@H]3OC(n4cnc5c(N)ncnc54)[C@H](O)[C@@H]3O)[C@H](O)[C@@H]2O)n1 (some centres undefined) | > 100 µM (inactive) |  |  | > 100 µM (inactive) | > 100 µM (inactive) | > 100 µM (inactive) |  | > 100 µM (inactive) | > 100 | 39.6 µM (inactive) | > 100 µM (inactive) | > 100 µM (inactive) | > 100 µM (inactive) |  | > 100 µM (inactive) | 37.8 µM (inactive)
